Assay results taken from US20070275936A1, “Formulations and Treatment Methods” (priority 1998, published 2007).
“Also recorded” adds a separate entry of the source.

What was measured:
Type in all cases: in vivo
[1] = Pharmacokinetics of BrEA after subcutaneous dose in rabbits
Protocol: The nonaqueous BrEA formulation of example 1 was administered as a single subcutaneous dose to rabbits. […] The circulating half-life of the drug in the plasma was about twelve hours.
A pharmacokinetic analysis of ^14C BrEA was conducted in New Zealand White rabbits. Twenty μCi of ^14C 16α-bromo-3-beta-hydroxy-5α-[4-^14C]-androstan-17-one (50 mCi/mmole) plus 1 mg/kg unlabeled BrEA was administered to each of three New Zealand White rabbits as a subcutaneous injection in the scapular region using an injection volume of 1 mL/kg. The drug was formulated in 25% polyethylene glycol 300, 12.5% absolute ethanol, 5% benzyl benzoate, and qs with propylene glycol. Blood samples were taken at 0.5, 1, 2, 4, 8, 12, 24 hours for all three animals, and at 48 hours for two of the animals. Twenty-four and 48 hours after administration, one and two animals respectively, were sacrificed, and the following organs/tissues were collected: brain, heart, kidneys, liver, lungs, skeletal muscle, spleen, and injection site muscle and skin. In addition to the organs and tissues, urine and feces were collected as well as the cage wash.
The average percentages of the administered dose in whole blood was calculated by multiplying the concentration of drug in whole blood by the assumed volume of blood in the animals, 200 mL. The amount of drug in the blood reaches a maximum at around 8 hours, and a small amount was still evident at 48 hours.

P. berghei = test: Survival of P. berghei infected mice given BrEA I.V. or S.C.; settings: cyclodextrin formulation, all control animals dead by day 10
Protocol: In a similar protocol, mice are inoculated with a solution containing 1×10^7 erythrocytes/mL by I.V. injection. Two hours later give drug is delivered by I.V. injection. BrEA or another formula 1 compound is given (0.2 mL I.V. or S.C.) once a day for 4 days. Tail snips are used to obtain blood after the study. Mice infected with P. berghei were used to obtain infected cells. Parasites are harvested from cardiac mouse blood, and uninfected mice are infected using 0.2 ml of blood with 14% parasitaemia per mouse I.V. Two hours later, the first dose of BrEA (100 mg/kg I.V. or S.C.) is delivered to the infected animals. The BrEA formulation was a sterile solution containing 15 mg/mL of BrEA in 45% hydroxypropyl-β-cyclodextrin and 0.9% saline. At 1, 2, 3 and 4 days after the infection of the animals, BrEA (100 mg/kg I.V. or S.C.) is delivered to the infected animals.

Sprague Dawley rats = test: TNBS induced distal colitis in rats; settings: day 14
Protocol: In another protocol formula 1 compounds were used in a similar animal model. Groups of 10 male Sprague Dawley rats (250-300 grams) were fasted for 24 hours before 2,4,6-trinitrobenzene sulfonic acid (TNBS) or saline challenge. This model presents a severe challenge to the animal's immune system. On Day 0, the rats were lightly anesthetized and a catheter inserted rectally into the colon such that the tip was 8 cm proximal to the anus. Distal colitis was induced by intra-colonic instillation of 0.5 mL of an ethanolic solution of TNBS (60 mg/mL ethanol 50% in water). The test substance, 7-oxodehydroepiandrosterone 20 mg/mL in vehicle or vehicle control was administered by subcutaneous injection (0.1 mL/injection) once a day for 6 days, the first dose being given 30 minutes after TNBS challenge. Sulfasalazine (30 mg/mL in 2% Tween 80 in distilled water) or vehicle control was administered orally (PO) once a day (10 mL/kg/day) for 7 days, the first two doses beginning 24 hours and 2 hours before […] challenge. Signs of diarrhea were recorded daily by examining the anal area. Animals were fasted for 24 hours prior to sacrifice on day 14 and the colon was removed and weighed. After gross observations of colonic tissues, 3 samples were taken from regions approximately 1, 3, and 8 cm proximal to the anus. If gross ulcers or inflammation were present, at least one sample was taken from the affected region. Before removal of the colon, signs of adhesion between the colon and other organs were recorded. […] Body weight, colon-to-body-weight ratio, and damage scores were assessed. Visible damage was scored on a 1-5 scale as follows: 0=No damage; 1=Localized hyperemia but no ulcers; 2=linear ulcers with no significant inflammation; 3=Linear ulcers with inflammation at one site; 4=Two or more sites of ulceration and/or inflammation; 5=Two or more major sites of ulceration and inflammation or one major site of ulceration and inflammation extending more than 1 cm along the length of the colon. […]

[2] = Animal 201, 24 hours, 1 mg/kg s.c.
[3] = Animal 301, 48 hours, 1 mg/kg s.c.
[4] = Animal 301, 48 hours, sample wt. 6 g
[5] = Animal 302, 48 hours, 1 mg/kg s.c.

## C[C@]12CC[C@H](O)C[C@@H]1CC[C@@H]1[C@@H]2CC[C@]2(C)C(=O)[C@H](Br)C[C@@H]12 [BrEA, 16α-bromo-3β-hydroxy-5α-androstane-17-one]
[1]; [2]
  Percentage of Drug in Organs: Brain: 0.005%
  Percentage of Drug in Organs: Heart: 0.008%
  Percentage of Drug in Organs: Kidneys: 0.155%
  Percentage of Drug in Organs: Liver: 0.76%
  Percentage of Drug in Organs: Lungs: 0.029%
  Percentage of Drug in Organs: Spleen: 0.002%
[1]; Animal 201, 24 hours, sample wt. 3.8 g
  Percentage of Drug in Organs: Skeletal muscle: 0.002%
[1]; Animal 201, 24 hours, sample wt. 8 g
  Percentage of Drug in Organs: Skin: 0.008%
[1]; [3]
  Percentage of Drug in Organs: Brain: 0.002%
  Percentage of Drug in Organs: Heart: 0.003%
  Percentage of Drug in Organs: Kidneys: 0.055%
  Percentage of Drug in Organs: Liver: 0.145%
  Percentage of Drug in Organs: Lungs: 0.019%
  Percentage of Drug in Organs: Spleen: 0%
[1]; [4]
  Percentage of Drug in Organs: Skeletal muscle: 0%
  Percentage of Drug in Organs: Skin: 0.002%
[1]; [5]
  Percentage of Drug in Organs: Brain: 0%
  Percentage of Drug in Organs: Heart: 0.002%
  Percentage of Drug in Organs: Kidneys: 0.050%
  Percentage of Drug in Organs: Liver: 0.125%
  Percentage of Drug in Organs: Lungs: 0.011%
  Percentage of Drug in Organs: Spleen: 0%
[1]; Animal 302, 48 hours, sample wt. 5 g
  Percentage of Drug in Organs: Skeletal muscle: 0%
[1]; Animal 302, 48 hours, sample wt. 9 g
  Percentage of Drug in Organs: Skin: 0.004%
[1]; rabbits, 1 mg/kg s.c.
  time of maximum amount of drug in whole blood: around 8 hours
[1]; rabbits, 1 mg/kg s.c., 24 hours
  drug in the liver: approximately 0.8 % of the injected dose
[1]; rabbits, 1 mg/kg s.c., 48 hours
  drug in the liver: ~0.12 % of the injected dose
[1]; rabbits, 1 mg/kg s.c., average printed after the 48 hours value
  drug in the liver, average: 0.13%
[1]; rabbits, s.c. dose
  accumulation in organs: did not accumulate to a significant extent in any major organ; also recorded: did not accumulate to a significant degree in any of the organs
  route of excretion: primarily excreted in the urine
[1]; rabbits, single s.c. dose
  circulating half-life of the drug in the plasma: about twelve
[1]; rabbits, single s.c. dose, at eight to twelve hours post administration
  maximum concentration in the plasma: about 1.2 % of the injected dose
[1]; rabbits, single subcutaneous dose, formulation of example 1, within 24 hours
  drug left the injection site: More than 90%
P. berghei; BrEA 100 mg/kg I.V. daily
  survival of infected mice: No deaths occurred in the group receiving I.V. BrEA at day 30
P. berghei; BrEA 100 mg/kg S.C. daily
  survival of infected mice: dead by Day 11
Sprague Dawley rats
  histopathology: inflammation / lesion frequency and severity versus controls: appeared to be similar

## C[C@]12CC[C@H](O)CC1=CC[C@@H]1[C@@H]2CC[C@]2(C)C(=O)CC[C@@H]12 [DHEA, dehydroepiandrosterone, reference compound]
Sprague Dawley rats
  histopathology: inflammation / lesion frequency and severity versus controls: appeared to be similar
